Assay results published in US10619138B2, “Herbicide-resistant hydroxyphenylpyruvate dioxygenases” (BASF SE, priority 2013, dated 2020).

How the values were obtained:
[1] = tested on: Algoriphagus HPPD (SEQ ID NO: 22); assay: In vitro HPPD activity assay, tolerance index; format: biochemical, Algoriphagus machipongonensis; settings: normalized on Arabidopsis wild-type HPPD
Experimental: (§1) The activity assay for HPPD is based on the analysis of homogentisic acid by reversed phase HPLC.
(§2) The assay mixture can contain 150 mM potassium phosphate buffer pH 7.0, 50 mM L-ascorbic acid, 100 μM Catalase (Sigma-Aldrich), 1 μM FeSO4 and 0.2 units of purified HPPD enzyme in a total volume of 505 μl. 1 unit is defined as the amount of enzyme that is required to produce 1 nmol of HGA per minute at 20° C.
(§3) The reaction is allowed to proceed for 45 min at room temperature. The reaction is stopped by the addition of 50 μl of 4.5 M phosphoric acid. The sample is filtered using a […] pore size PVDF filtration device.
(§4) 5 μl of the cleared sample is analyzed on an UPLC HSS T3 column (particle size 1.8 μm, dimensions 2.1×50 mm; Waters) by isocratic elution using 90% 20 mM NaH2PO4 pH 2.2, 10% methanol (v/v).
(§5) HGA is detected electrochemically at 750 mV (mode: DC; polarity: positive) and quantified by integrating peak areas (Empower software; Waters).
(§6) Inhibitors are dissolved in DMSO (dimethylsulfoxide) to a concentration of 0.5 mM. From this stock solution serial five-fold dilutions are prepared in DMSO, which are used in the assay. The respective inhibitor solution accounts for 1% of the assay volume. Thus, final inhibitor concentrations range from 5 μM to 320 pM, respectively. Activities are normalized by setting the uninhibited enzyme activity to 100%. IC50 values are calculated using non-linear regression.
(§7) Using methods which are described in the above examples or well known in the art, purified, recombinant wildtype HPPD enzymes are characterized with respect to their kinetic properties and sensitivity towards HPPD inhibiting herbicides. Apparent michaelis constants (Km) and maximal reaction velocities (Vmax) are calculated by non-linear regression with the software GraphPad Prism 5 (GraphPad Software, La Jolla, USA) using a substrate inhibition model. […] Weighted means (by standard error) of Km and IC50 values are calculated from at least three independent experiments. The Cheng-Prusoff equation for competitive inhibition (Cheng, Y. C.; Prusoff, W. H. Biochem Pharmacol 1973, 22, 3099-3108) is used to calculate dissociation constants (Ki).
(§8) Field performance of the HPPD enzyme, which is used as a herbicide tolerance trait may depend not only on its lack of sensitivity towards HPPD inhibiting herbicides but also on its activity. To assess the potential performance of a herbicide tolerance trait a tolerance index (TI) is calculated using the following formula: […]
(§9) Easy comparison and ranking of each trait is enabled by normalizing tolerance indexes on Arabidopsis wild-type HPPD.

[2] = tested on: Nitritalea HPPD (SEQ ID NO: 14); assay: In vitro HPPD activity assay, tolerance index; format: biochemical, Nitritalea halalkaliphila; settings: normalized on Arabidopsis wild-type HPPD
Experimental: as §1, §2, §3, §4, §5, §6, §7, §8, §9

[3] = tested on: Herpetosiphon HPPD (SEQ ID NO: 26); assay: In vitro HPPD activity assay, tolerance index; format: biochemical, Herpetosiphon aurantiacus; settings: normalized on Arabidopsis wild-type HPPD
Experimental: as §1, §2, §3, §4, §5, §6, §7, §8, §9

[4] = molecular target: T1, Arabidopsis HPPD (SEQ ID NO: 42) (Arabidopsis thaliana, UniProt P93836); assay: In vitro HPPD activity assay (HGA by HPLC), wildtype enzyme characterization; format: biochemical; settings: normalized on Arabidopsis wild-type HPPD; reference enzyme
T1 construct: Arabidopsis (42); His tag; made in house; host or cells: E. coli BL21 (DE3)
T1 sequence (P93836 1-445): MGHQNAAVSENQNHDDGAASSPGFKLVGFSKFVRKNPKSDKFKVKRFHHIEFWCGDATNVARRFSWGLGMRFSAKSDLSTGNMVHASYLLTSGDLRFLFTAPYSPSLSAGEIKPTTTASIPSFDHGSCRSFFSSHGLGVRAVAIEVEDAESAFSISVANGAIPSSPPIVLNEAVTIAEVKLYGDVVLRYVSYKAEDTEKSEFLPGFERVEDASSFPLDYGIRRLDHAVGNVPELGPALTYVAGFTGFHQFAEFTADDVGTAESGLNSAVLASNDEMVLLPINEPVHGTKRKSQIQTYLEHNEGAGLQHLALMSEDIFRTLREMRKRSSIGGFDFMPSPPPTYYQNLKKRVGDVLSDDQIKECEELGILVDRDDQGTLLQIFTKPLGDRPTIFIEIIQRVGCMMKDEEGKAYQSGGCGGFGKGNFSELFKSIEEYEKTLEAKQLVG
Experimental: as §1, §2, §3, §4, §5
as §6, with “Thus, final inhibitor concentrations range from 5 μM to 320 pM, respectively.” left out
as §7, with “experiments.” for “experiments. The Cheng-Prusoff equation for competitive inhibition (Cheng, Y. C.; Prusoff, W. H. Biochem Pharmacol 1973, 22, 3099-3108) is used to calculate dissociation constants (Ki).”
as §8, §9

[5] = tested on: Scenedesmus HPPD (SEQ ID NO: 4); assay: In vitro HPPD activity assay, tolerance index; format: biochemical, Scenedesmus obliquus; settings: normalized on Arabidopsis wild-type HPPD
Experimental: as §1, §2, §3, §4, §5, §6, §7, §8, §9

[6] = tested on: Mucilaginibacter HPPD (SEQ ID NO: 28); assay: In vitro HPPD activity assay, tolerance index; format: biochemical, Mucilaginibacter paludis; settings: normalized on Arabidopsis wild-type HPPD
Experimental: as §1, §2, §3, §4, §5, §6, §7, §8, §9

[7] = tested on: Microscilla HPPD (SEQ ID NO: 20); assay: In vitro HPPD activity assay, tolerance index; format: biochemical, Microscilla marina; settings: normalized on Arabidopsis wild-type HPPD
Experimental: as §1, §2, §3, §4, §5, §6, §7, §8, §9

[8] = tested on: Belliella HPPD (SEQ ID NO: 12); assay: In vitro HPPD activity assay, tolerance index; format: biochemical, Belliella baltica; settings: normalized on Arabidopsis wild-type HPPD
Experimental: as §1, §2, §3, §4, §5, §6, §7, §8, §9

[9] = tested on: Pontibacter HPPD (SEQ ID NO: 16); assay: In vitro HPPD activity assay, tolerance index; format: biochemical, Pontibacter sp.; settings: normalized on Arabidopsis wild-type HPPD
Experimental: as §1, §2, §3, §4, §5, §6, §7, §8, §9

[10] = tested on: Geodermatophilus HPPD (SEQ ID NO: 32); assay: In vitro HPPD activity assay, tolerance index; format: biochemical, Geodermatophilus obscurus; settings: normalized on Arabidopsis wild-type HPPD
Experimental: as §1, §2, §3, §4, §5, §6, §7, §8, §9

SMILES | TI (normalized tolerance index) [1] | TI (normalized tolerance index) [2] | TI (normalized tolerance index) [3] | TI (normalized tolerance index) [4] | TI (normalized tolerance index) [5] | TI (normalized tolerance index) [6] | TI (normalized tolerance index) [7] | TI (normalized tolerance index) [8] | TI (normalized tolerance index) [9] | TI (normalized tolerance index) [10]
COCCOCc1nc(C(F)(F)F)ccc1C(=O)C1=C(O)C2CCC(C2)C1=O (centres unmarked) [Inhibitor 3, 2-hydroxy-3-[2-(2-methoxyethoxymethyl)-6-(trifluoromethyl)pyridine-3-carbonyl]bicyclo[3.2.1]oct-2-en-4-one] | 29 | 1.1 | 2 | 1 | 0.9 | 6.9 | 6.7 | 10 | 1.7 | 7.4
CCS(=O)(=O)c1cc(C(F)(F)F)ccc1C1=C(O)c2ncccc2C(C)(C)S1(=O)=O [Inhibitor 5, 7-[2-ethylsulfonyl-4-(trifluoromethyl)phenyl]-5,5-dimethyl-6,6-dioxo-thiopyrano[4,3-b]pyridin-8-ol] | 24.7 | 3.2 | 1 | 1 | 0.6 | 5.2 | 17.7 | 10.6 | 2.5 | 5.6
